Measurements from PMC8123651, “Flavones from Combretum quadrangulare Growing in Vietnam and Their Alpha-Glucosidase Inhibitory Activity” (Molecules, 2021).
pIC50: −log10 of the molar value.

Tests used:
[1] = tested on: methicillin-resistant Staphylococcus aureus (MRSA); experiment: Antibacterial activity, agar well diffusion method; assay type: cell-based; conditions: 50 μg of each compound per well, 8-mm wells, read-out: Diameter of inhibition zone
Experimental: Methicillin-resistant Staphylococcus aureus (MRSA), extended spectrum beta-lactamase-producing Escherichia coli (ESBL-producing E. coli) and the agar well diffusion method were used to evaluate the antibacterial activity of the isolated compounds [29]. The strains were cultured in nutrient broth at 37 °C for 18 h and diluted with steriled 0.9% NaCl to obtain the 1.5 × 10^8 CFU/mL bacterial solution. Then, 100 μL of the bacterial solution was spread on Mueller–Hinton agar (MHA) plate on which 8-mm wells were created aseptically with tips. The isolated compounds were dissolved in dimethyl sulfoxide at the concentration of 1 mg/mL and 50 μL of each compound solution was applied in each well. The plates were incubated at 37 °C for 16–18 h and the diameters of the inhibtion zones were measured. Dimethyl sulfoxide and apramycin were used as controls in this experiment.

[2] = target: T1, alpha-glucosidase (Saccharomyces cerevisiae, UniProt P53341); experiment: Inhibitory type assay on alpha-glucosidase (Lineweaver–Burk plots); assay type: biochemical; conditions: Vmax decreased while Km remained constant
Experimental: In order to examine the inhibition mechanism of compound 11, their activity was measured at the different concentration of pNPG.
Enzyme inhibition due to various concentrations of the 8 and 11 compounds were evaluated by monitoring the effects of different concentrations of the substrate. For Lineweaver–Burk double reciprocal plots 1/enzyme velocity (1/V) vs. 1/substrate concentration (1/[S]), the inhibition type was determined using various concentrations of pNPG (1 mM, 2 mM, and 4 mM) as a substrate in the presence of different concentrations of the test compounds (0; 4.96; 9.92 and 19.84 µM for 8 and 0; […]; 43.03 and 86.06 µM for 11). The experiments were carried out in 3 replicates. The mixtures were incubated at 37 °C and the optical density was measured at 405 nm every 1 min for 30 min with the Clariostar Labtech microplate reader (Ortenberg, Germany). Optimal concentrations of the tested compound were chosen based on the IC50 value. The inhibition constants were obtained graphically from secondary plots (Microsoft Excel 2010, Washington, WA, USA).

[3] = target: T1, alpha-glucosidase; experiment: Alpha-glucosidase inhibition assay (pNPG substrate); assay type: biochemical; conditions: means ± standard errors of three independent experiments; read-out: Alpha-glucosidase inhibitory IC50
Experimental: The alpha-glucosidase (0.2 U/mL) and substrate (5.0 mM p-nitrophenyl-α-D-glucopyranoside) were dissolveed in 100 mM of pH 6.9 sodium phosphate buffer. The inhibitor (50 µL) was preincubated with alpha-glucosidase at 37 °C for 20 min, and then the substrate (40 µL) was added to the reaction mixture. The enzymatic reaction was carried out at 37 °C for 20 min and stopped by adding 0.2 M of Na2CO3 (130 μL). Enzymatic activity was quantified by measuring absorbance at 405 nm. All samples were analyzed in triplicate at five different concentrations around the IC50 values, and the mean values were retained. The inhibition percentage (%) was calculated by the following equation: Inhibition (%)=[1−(Asample/Acontrol)]×100. .

T1 sequence (P53341 whole entry): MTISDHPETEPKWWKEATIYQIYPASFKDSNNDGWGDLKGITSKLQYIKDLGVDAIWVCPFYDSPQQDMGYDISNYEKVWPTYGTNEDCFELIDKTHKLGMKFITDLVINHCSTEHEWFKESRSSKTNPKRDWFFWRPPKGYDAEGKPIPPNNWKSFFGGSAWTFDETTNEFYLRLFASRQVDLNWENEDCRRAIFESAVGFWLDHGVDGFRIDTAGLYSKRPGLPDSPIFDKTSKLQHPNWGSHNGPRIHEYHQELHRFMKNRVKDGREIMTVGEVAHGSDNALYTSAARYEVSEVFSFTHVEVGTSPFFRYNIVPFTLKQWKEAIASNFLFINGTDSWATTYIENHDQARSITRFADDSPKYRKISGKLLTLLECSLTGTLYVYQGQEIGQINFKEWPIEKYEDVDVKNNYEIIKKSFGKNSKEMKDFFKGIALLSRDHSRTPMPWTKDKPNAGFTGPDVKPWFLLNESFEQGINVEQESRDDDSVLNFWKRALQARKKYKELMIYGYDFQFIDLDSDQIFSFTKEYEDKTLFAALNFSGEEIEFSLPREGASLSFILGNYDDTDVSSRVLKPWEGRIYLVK

Compound `COc1cc(O)c2c(=O)c(O)c(-c3ccc(OC)c(O)c3)oc2c1` [Compound 5, ombuin] has a zone of inhibition at 50 µg/disc [1] of 15 mm.

`COc1c(O)cc(-c2oc3c(Br)c(OC)c(Br)c(O)c3c(=O)c2OC)cc1Br` [Compound 8, 6,8,5′-Tribromoayanin] was tested, and the Inhibition type [2] was “noncompetitive”.

For `COc1c(Br)c(O)c2c(=O)c(OC)c(-c3cc(Br)c(O)c(Br)c3)oc2c1Br` [Compound 11, 6,8,3′,5′-Tetrabromokamatakenin], the Inhibition type [2] was “noncompetitive”.

Work on `CN[C@@H]1[C@@H](O[C@H]2O[C@H](CO)[C@@H](N)[C@H](O)[C@H]2O)OC2C[C@@H](N)[C@@H](O[C@H]3[C@H](O)[C@@H](O)[C@H](N)C[C@@H]3N)OC2[C@@H]1O` (stereo partly drawn) [apramycin, reference compound] yielded a zone of inhibition at 50 µg/disc [1] of 24 mm.

For isoorientin [Compound 15], the pIC50 [3] was < 3.52.

For vitexin [Compound 16], the pIC50 [3] was < 3.52.
